Measurements from US20170281611A1, “QUINOLINES AND THEIR USE FOR TREATING ENDOPLASMIC RETICULUM STRESS-CAUSED DISEASES” (EIGER BIOPHARMACEUTICALS, INC., priority 2014, published 2017).

Tests used:
[1] = test system: PERK, elF2α, CHOP; assay: Liver protein markers of ER stress (western blot); assay type: in vivo, mouse; conditions: liver of ob/ob mice, 50 mg/kg
Experimental: Proteins were analyzed by western blot and quantified. Bands were normalized to GAPDH and expressed as 100% of ob/ob+vehicle (ob). Liver tissues were homogenized with a bench-top homogenizer in an ice-cold tissue lysis buffer. The homogenized samples were centrifuged at 8,000×g for 20 min at 4° C. The lipid layer was removed and the supernatant was transferred into Eppendorf tubes. After centrifuging at 16,000×g for 60 min at 4° C., the supernatants were normalized to the same concentration and boiled at 100° C. in 1× Laemmli buffer for 5 min. The lysate was cooled to room temperature before loading for Western blot analysis. Protein lysate was resolved on SDS polyacrylamide gel and transferred onto PVDF membrane at a voltage of 100 V for 2 hrs at 4° C. The membrane was blocked in 10% blocking reagent and incubated overnight with a primary antibody in Tris-buffered saline solution/Tween (TBST)/10% blocking reagent at 4° C. After incubation, the membrane was washed three times in TBST for 20 min and incubated at room temperature with a secondary antibody in TBST/10% blocking reagent for 1 hr. The membrane was washed three times for 20 min and developed using a chemiluminescence assay system. To strip a membrane for another primary antibody, the membrane was agitated at 50° C. for 20 min in a box with stripping buffer (2% SDS and 100 mM 2-mercaptoethanol in TBS, pH 7.5). […]

[2] = Pharmacokinetics of compound A12 in Sprague Dawley rats; assay type: in vivo, rat; conditions: oral, 2 mg/kg P.O.
Experimental: Pharmacokinetics of a test compound, compound A12, was assessed in Sprague Dawley rats. The compound was formulated at 1 mg/mL in DMSO/Tween 80/water (10/10/80, vol/vol/vol) and dosed at 1 mg/kg intravenous (i.v.) or 2 mg/kg by oral gavage (P.O.) in triplicate. Blood was drawn at 5 min, 15 min, 30 min, 1 hr, 2 hrs, 4 hrs, 6 hrs, and 8 hrs into EDTA containing tubes and plasma was harvested by centrifugation. Plasma (25 μL) was treated with acetonitrile (125 μL) containing an internal standard. The sample was then centrifuged for 5 min at 4,000 rpm in a tabletop centrifuge and the filtrate was collected. The filtrate was injected onto a Thermo Betasil C18 HPLC column 5μ (50×2.1 mm). Mobile Phase A was water with 0.1% formic acid. Mobile Phase B was acetonitrile with 0.1% formic acid. Separation was achieved using a gradient of 90% A/10% B to 5% A/95% B over 7 min. An API Sciex 4000 equipped with a turbo ion spray source was used for all analytical measurements. A positive ion MRM method was developed. Peak areas of the product ion were measured against the peak areas of the internal standard. Data was fit using WinNonLin (Pharsight Corporation, Mountain View, Calif.).

[3] = test system: SERCA; assay: Ca-ATPase assay, microsomal preparations from HEK 293 cells; assay type: biochemical, human
Experimental: A Ca-ATPase assay was performed using microsomal preparations from HEK 293 cells at a series of calcium concentrations corresponding to the physiological range, relative to controls. The ATP hydrolysis rate was measured over a range of calcium concentrations in the presence of test compounds using an NADH-linked, enzyme-coupled ATPase assay adapted for 96-well microplates, with Vmax determined by fitting the ATPase calcium-dependence to the Hill function. […] CaCl2 was added to set free [Ca^2+] to the specific values.

[4] = test system: HeLa cells overexpressing BI-1; assay: Effect on [Ca2+]ER, ER cameleon in HeLa cells overexpressing BI-1; assay type: cell-based; conditions: HeLa cells overexpressing BI-1, treated 24 hrs
Experimental: To directly measure ER Ca^2+ content, a genetically encoded Ca^2+ indicator, ER cameleon, was used. HeLa cells were transfected with ER-cameleon encoding plasmid for 2 days before analysis. Cells were treated with a test compound for 24 hrs and imaged in Ca^2+-free HBSS upon addition of thapsigargin to deplete ER stores. Emission ratio imaging of the ER cameleon was accomplished using a 430/24 excitation filter, 450-nm dichroic mirror, and two emission filters (475/40 for CFP and 535/25 for YFP). The fluorescence ratio of YFP/CFP is a measure of relative ER Ca^2+ levels.

[5] = test system: 6-OHDA lesioned Wistar rats; assay: Rat unilateral 6-OHDA model of Parkinson's disease, initiation time (IT) test; assay type: in vivo; conditions: D11, 10 mg/kg IP once daily for 15 days, t test, vs 6-OHDA/Vehicle
Experimental: Fifty adult male Wistar rats were used. The rats from different groups (G1 to G5) were randomized. At the beginning of the study, the rats were about 5 weeks old and naive to previous administration of any drug.
A stereotaxic injection of 6-OHDA (G2 to G5) or saline (G1: sham group) was performed to induce a unilateral dopaminergic lesion on day 0 (D0). Surgery was performed on D0 under ketamine (50 mg/kg) and xylazine (10 mg/kg). The rats of G2 to G5 received a unilateral injection of 6-OHDA (6 μL) in the left substantia nigra pars compacta. Jouve et al., J. Neurosci. 2010, 30, 9919-9928. The rats of the G1 sham group were injected with saline. During surgery, local analgesia was achieved using subcutaneous injections of lidocaine. At the end of surgery, the rats were treated with buprenorphine (0.05 mg/kg, S.C.).
The IT test was performed both before the 6-OHDA lesion induction on D0 and on day 11 (D11) after the 6-OHDA lesion induction. Around six days (D−6) before the 6-OHDA lesion induction, the IT test was performed eight consecutive times for each limb of each rat to obtain baseline values. On D11, the IT test was performed one hour after the rats were dosed. For every test, only one of the two forelimbs of each rat was left free to move and the time that is necessary to initiate the movement toward a plane surface was recorded using 180 sec as break-off point. […]

Cc1ccc2cccc(NC(=O)c3ccc(OC(C)C)cc3)c2n1 [Compound A12, 4-Isopropoxy-N-(2-methylquinolin-8-yl)benzamide]
expression of CHOP [1]: significantly reduced
phosphorylation of PERK and elF2α [1]: significantly reduced
T112 [2]: 1.17 h
Vmax of a SERCA [3]: significantly increased
[Ca2+]ER [4]: significantly restored
akinesia measured in the IT test [5]: statistically significant improvement
